Target: T1, vitamin D receptors (Mus musculus, UniProt P48281)
T1 construct: the skin treated is removed and the epidermis is separated from the dermis; from tissue; host or cells: epidermis of SKH mice (in vivo, topical application)
T1 sequence (P48281 1-422): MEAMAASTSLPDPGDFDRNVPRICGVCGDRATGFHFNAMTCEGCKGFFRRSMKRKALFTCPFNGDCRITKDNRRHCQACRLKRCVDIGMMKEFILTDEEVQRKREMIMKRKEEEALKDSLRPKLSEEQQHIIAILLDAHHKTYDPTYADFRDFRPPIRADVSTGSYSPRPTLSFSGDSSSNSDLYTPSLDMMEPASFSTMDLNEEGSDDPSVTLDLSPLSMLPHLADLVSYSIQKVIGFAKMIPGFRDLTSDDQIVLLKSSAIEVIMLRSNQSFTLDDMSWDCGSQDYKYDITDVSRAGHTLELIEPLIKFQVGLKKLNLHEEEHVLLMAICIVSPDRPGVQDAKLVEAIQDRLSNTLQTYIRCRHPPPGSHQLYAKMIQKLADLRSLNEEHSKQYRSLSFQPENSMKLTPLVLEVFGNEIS
Assay: Induction of 24-Hydroxylase mRNA in the epidermis of SKH mice after a single topical application (semiquantitative PCR)
Format: in vivo
Settings: for Expression of the mRNA for 24-Hydroxylase: Induction factor versus ethanol: single topical application of 50 μl to the back, epidermis 8 hours after application, normalized to GAPDH mRNA
Procedure: The test protocol used is the following:
SKH mice receive a single topical application of a compound according to the invention in solution in ethanol in increasing concentrations. A volume of 50 μl of the product to be tested or of the vehicle alone is applied to the back of the mice with the aid of a pipette.
A volume of 50 μl of the product to be tested or of the vehicle alone is applied to the back of the mice with the aid of a pipette.
8 hours after the topical application, the mice are humanely killed, the skin treated is removed and the epidermis is separated from the dermis. The quantification of the mRNA for 24-Hydroxylase is carried out by semiquantitative PCR.

[1] = concentration 0.1 % (weight/volume) in ethanol
[2] = concentration 1 % (weight/volume) in ethanol

| Expression of the mRNA for 24-Hydroxylase: Induction factor versus ethanol [1] | Expression of the mRNA for 24-Hydroxylase: Induction factor versus ethanol [2] | SMILES | Activity (induction of 24-Hydroxylase mRNA) compared with 1,25-(OH)2-vitamin D3 (at the concentration of 1%, single topical application, SKH mice) |
| --- | --- | --- | --- |
| 20.5 | – | CCC(O)(/C=C/C=C(\C)c1cccc(CCc2ccc(CO)c(CO)c2)c1)CC [Example 59, (4E,6E)-7-{3-[2-(3,4-bis-Hydroxymethylphenyl)ethyl]-phenyl}-3-ethylocta-4,6-dien-3-ol] | – |
| 17 | – | CCC(O)(CC)CC/C=C(\C)c1cccc(OCc2ccc(CO)c(CO)c2)c1 [Example 72, (E)-7-[3-(3,4-bis-Hydroxymethylbenzyloxy)phenyl]-3-ethyloct-6-en-3-ol] | – |
| – | 10 | CCC(O)(/C=C/C=C(\C)c1cccc(C=Cc2ccc(CO)c(CO)c2)c1)CC [Example 61, (4E-6E)-7-{3-[2-(3,4-bis-Hydroxymethylphenyl}vinyl]-phenyl)-3-ethylocta-4,6-dien-3-ol] | – |
| 25 | – | CC/C(=C\C=C\C(O)(CC)CC)c1cccc(OCc2ccc(CO)c(CO)c2)c1 [Example 68, (4E,6E)-7-[3-(3,4-bis-Hydroxymethylbenzyloxy)phenyl]-3-ethylnona-4,6-dien-3-ol] | – |

The next lines start with the compound.

| SMILES | Expression of the mRNA for 24-Hydroxylase: Induction factor versus ethanol [1] | Expression of the mRNA for 24-Hydroxylase: Induction factor versus ethanol [2] | Activity (induction of 24-Hydroxylase mRNA) compared with 1,25-(OH)2-vitamin D3 (at the concentration of 1%, single topical application, SKH mice) |
| --- | --- | --- | --- |
| CCC(O)(/C=C/C=C(\C)c1cccc(OCc2ccc(CO)c(CO)c2)c1)CC [Example 65, (4E,6E)-7-[3-(3,4-bis-Hydroxymethylbenzyloxy)phenyl]-3-ethylocta-4,6-dien-3-ol] | – | 15 | – |
| CC(=CC=CC(C)(C)O)c1cccc(OCc2ccc(CO)c(CO)c2)c1 [Example 4, 6-[3-(3,4-bis-Hydroxymethylbenzyloxy)phenyl]-2-methylhepta-3,5-dien-2-ol] | – | 11 | comparable to that of 1,25-(OH)2-vitamin D3 at 0.001% |
| CCC(O)(/C=C/C=C(\C)c1cccc(COc2ccc(CO)c(CO)c2)c1)CC [Example 82, (4E,6E)-7-[3-(3,4-bis-Hydroxymethylphenoxy-methyl)phenyl]-3-ethylocta-4,6-dien-3-ol] | 21 | – | – |
